≈ marks a conversion by molar mass, not a printed value. Numbered stars: 1 amine (or outer) side, 2 acyl side, 3 side chain; on linkers, the order of the positions; unused ones are H or OH. Square brackets hold non-standard residues; d marks the D form. Peptide text beside a SMILES is read from it. Phe(4-NH2) = Nc1ccc(C[C@H](N)C(=O)O)cc1; Suc = O=C(CCC(=O)[*:2])[*:1]
What was measured:
[1] = test system: purified rat peritoneal mast cells; type: cell-based; details: for maximal inhibition of compound 48/80 induced histamine secretion: 600 μg/ml peptide, compound 48/80 concentration not given; for Inhibitor (extent of inhibition of histamine secretion from mast cells): Table 9, incubation with different concentrations of each peptide, then induction of the allergic reaction
Experimental: 37° C. […] Each data point represents the average of duplicate measurements. The spontaneously released histamine was subtracted.
First, the effect of compound 48/80 on exocytosis from intact mast cells was determined. […] Histamine release was determined and is presented as the net secretion that is % of the total cellular histamine following subtraction of the spontaneously released histamine. Half-maximal release was obtained at 0.1 μg/ml while maximal release was obtained at 1-10 μg/ml. Accordingly, in order to analyze the potential of each peptide to block histamine secretion, histamine secretion was induced with 5 μg/ml compound 48/80, a concentration that induces a maximal histamine release, while the cells were incubated in the presence of increasing concentrations of each peptide.
In order to investigate the ability of these peptides to block allergen-induced exocytosis, the peptides were examined for their ability to block compound 48/80 induced histamine secretion from intact mast cells in vitro. Mast cells were incubated with different concentrations of each peptide, followed by induction of histamine secretion by compound 48/80.

[2] = test system: abdominal skin of C.R rats; assay: Rat skin test: intradermal injection of peptide, then intradermal compound 48/80 or vehicle, wheal area; type: in vivo; details: for Mean Wheal Area ± STD, Compound 48/80 / Wheal Area, Compound 48/80 (representative experiment): 0.5 hour before allergic induction; for Mean Wheal Area ± STD, Vehicle / Wheal Area, Vehicle (representative experiment): 0.5 hour before; for Mean Wheal Area ± STD, Vehicle: vehicle instead of compound 48/80
Experimental: The hair of the abdominal area of C.R rats was carefully removed with an electric clipper and a depilatory cream. In each animal the abdominal area was divided to six equal zones that were marked by pen. Each zone was either subjected to peptide treatment or served as a control. In the first set of experiments, the peptide was topically applied as follows: 36 μl of peptide solution at the indicated concentration (dissolved in 72% DMSO in saline) was applied on desired abdominal area. In the second set of experiments, the peptide was injected intradermally as follows: 20 μl of peptide solution at different concentrations (dissolved in 10% DMSO in saline) was injected intradermally to an indicated abdominal area using a 27-gauge sterile needle.
Skin tests were performed 0.5, 1 or 2 hours following application of the peptide. Skin tests were performed by injecting intradermally 20 μl of the allergen (0.1 mg/ml compound 48/80 dissolved in saline) or saline alone, into the center of each marked area on the abdominal skin using a 27-gauge sterile needle. The allergic response was monitored by outlining with a marker the wheals which developed in response to allergen or saline treatment.
To quantitate the skin test results, the marker signs were transferred onto paper with scotch tape. The areas of the wheals were outlined and calculated by a computerized planimeter (Hewlett-Packard), as previously described (Sussman et al., 1982).
Tables 10-16 presents the mean areas of the wheals, which developed in response to intradermal injection of each of the tested peptides, followed by either compound 48/80 or DDW injection applied after 0.5 or 1 hour. Two doses were tested for each peptide-20 and 200 μg (injection of 20 μl from a stock solution of 1 mg/ml or 10 mg/m respectively).
Skin tests on rats using compound 48/80 as the allergen assessed the ability of the peptides of the present invention to block allergic cutaneous reactions. The abdominal skin of the rats was subjected to peptide (indicated concentrations are listed in Tables 17A-17B below) or vehicle treatment (intradermal injection); the allergic response was induced by intradermal injection of compound 48/80 at various times; and the allergic response was quantified by calculating the area of the resultant allergic wheals.

[3] = test system: purified rat peritoneal mast cells; assay: Histamine secretion from intact mast cells incubated with peptide alone (secretagogue side effect); details: for Secretagogue (histamine secretion following incubation of mast cell with different concentrations of each peptide): Table 9, no allergen; for Secretagogue (histamine secretion following incubation of mast cell with different concentrations of each peptide) / basal level of histamine secretion compared to control cells: peptide alone; for histamine secretion from mast cells on incubation with increasing concentrations of peptide alone: no additional allergen; for basal level of histamine secretion compared to control cells: increasing concentrations
Experimental: Mast cells from the peritoneal cavity of C.R rats were isolated in Tyrode buffer (137 mM NaCl, 2.7 mM KC1, 1 mM MgCl2, 0.4 mM NaH2PO4, 20 mM Hepes, 1.0 mM CaCl2, 5.6 mM glucose, 1 mg/ml BSA, pH 7.2) and purified over a Ficoll gradient. A suspension of washed peritoneal cells was placed over a cushion of 30% Ficoll 400 (Pharmacia Biotech.) in buffered Saline containing 0.1% BSA; and centrifuged at 150O×g for 15 min. The purity of mast cells recovered from the bottom of the tube was >90%, as assessed by toluidine blue staining.
Purified mast cells (duplicated of 10^5 cells/0.5 ml) were incubated in Tyrode buffer with buffer or with desired concentrations of the indicated peptide for 2 h. at. 37° C. Histamine secretion was subsequently stimulated by the indicated concentration of compound 48/80 (Sigma) dissolved in Tyrode buffer. Incubation with compound 48/80 was carried out for 20 mm.in at 37° C. The reaction was terminated by placing the tubes on ice. The cells were sedimented by centrifugation at 150×g for 5 mm.in and the supernatants were collected. The amount of histamine release was determined as previously described (Aridor et al., 1990). Briefly, cell pellets were lysed using 0.1N NaOH and the volume of each sample was adjusted to 0.5 ml by H2O. Histamine content was assayed using the o-phtalaldehyde (OPT) fluorimetric method (Shore et al., 1959). Aliquots of 0.4 ml from the supernatants and cell lysates were incubated with 1.6 ml H20, 0.4 ml 1N NaOH and 0.1 ml of 10 mg/l ml OPT in methanol, for 4 min at room temperature. The reaction was terminated by the addition of 0.2 ml 3N HCl. Samples were centrifuged at 150×g for 5 min. and 0.2 ml samples were transferred to a 96 well plate. The histamine spectrofluorometric assay was run in microplates using a microplates reader (FL-600, Biotek instruments Winooski, Vt., USA). Samples were excited by light at 340 nm and read at 440 nm. Histamine release was calculated as the percentage of total histamine content (supernatant/pellet+supernatant) in each sample. Each data point represents the average of duplicate measurements. The spontaneously released histamine was subtracted.

[4] = intradermal peptide 0.5 hour before allergic induction

| Structure (SMILES) | IC50, compound 48/80 induced histamine secretion [1] | maximal inhibition of compound 48/80 induced histamine secretion [1] | Inhibitor (extent of inhibition of histamine secretion from mast cells) [1] | block of compound 48/80 induced allergic reaction in vivo, rat skin ([2]; intradermal peptide) | Mean Wheal Area ± STD, Compound 48/80 ([2]; intradermal peptide 1 mg/ml) | Mean Wheal Area ± STD, Vehicle ([2]; intradermal peptide 1 mg/ml) | Mean Wheal Area ± STD, Compound 48/80 ([2]; intradermal peptide 10 mg/ml) | Mean Wheal Area ± STD, Vehicle ([2]; intradermal peptide 10 mg/ml) | reduction of compound 48/80 induced allergic reaction [2, 4] | Secretagogue (histamine secretion following incubation of mast cell with different concentrations of each peptide) [3] | histamine secretion from mast cells on incubation with increasing concentrations of peptide alone [3] | basal level of histamine secretion compared to control cells [3] | reduction of compound 48/80 induced allergic reaction ([2]; intradermal peptide, lower dose or 1 hour before allergic induction) | Wheal Area, Vehicle (representative experiment) ([2]; intradermal peptide 1 mg/ml) | Wheal Area, Compound 48/80 (representative experiment) ([2]; intradermal peptide 1 mg/ml) | Wheal Area, Vehicle (representative experiment) ([2]; intradermal peptide 10 mg/ml) | Wheal Area, Compound 48/80 (representative experiment) ([2]; intradermal peptide 10 mg/ml) |
| --- | --- | --- | --- | --- | --- | --- | --- | --- | --- | --- | --- | --- | --- | --- | --- | --- | --- |
| CC(C)C[C@H](NC(=O)CNC(=O)[C@H](CS)NC(=O)[C@H](CCC(=O)O)NC(=O)[C@H](CCCCN)NC(=O)[C@H](CC(C)C)NC(=O)[C@H](CC(N)=O)NC(=O)[C@H](CCC(=O)O)NC(=O)[C@H](CCCCN)NC(=O)[C@@H]1CCCN1C(=O)[C@H](C)NC(=O)[C@H](CC(C)C)NC(=O)[C@H](CC(C)C)NC(=O)[C@H](C)NC(=O)[C@H](CC(C)C)NC(=O)[C@H](CC(C)C)NC(=O)[C@@H](NC(=O)[C@H](C)NC(=O)[C@@H]1CCCN1C(=O)[C@H](CC(C)C)NC(=O)[C@H](CC(C)C)NC(=O)[C@H](C)NC(=O)[C@@H](NC(=O)[C@H](C)NC(=O)[C@H](C)NC(=O)CCC(=O)O)C(C)C)C(C)C)C(=O)N[C@@H](Cc1ccc(O)cc1)C(=O)O [WALL012] (Suc-AAVALLPAVLLALLAPKENLKECGLY-OH; C-terminus assumed) | 320 µg/mL (≈ 115 µM) | 97.5% | +++ (+++ Potent inhibitor (≧80% inhibition)) | effectively block the allergic response in vivo | 104.8 ± 12.6 (n = 5) mm^2 | 71.6 ± 13.8 (n = 5) mm^2 | 75.1 ± 8.5 (n = 5)** mm^2 | 66.7 ± 10.1 (n = 5) mm^2 | significant inhibition | − | did not result in histamine secretion | minor inhibition of the basal level of histamine secretion |  |  |  |  |  |
| CC(C)C[C@H](NC(=O)CNC(=O)[C@H](CS)NC(=O)[C@H](CCC(=O)O)NC(=O)[C@H](CCCCN)NC(=O)[C@H](CC(C)C)NC(=O)[C@H](CC(N)=O)NC(=O)[C@H](C)NC(=O)[C@H](CCCCN)NC(=O)[C@@H]1CCCN1C(=O)[C@H](C)NC(=O)[C@H](CC(C)C)NC(=O)[C@H](CC(C)C)NC(=O)[C@H](C)NC(=O)[C@H](CC(C)C)NC(=O)[C@H](CC(C)C)NC(=O)[C@@H](NC(=O)[C@H](C)NC(=O)[C@@H]1CCCN1C(=O)[C@H](CC(C)C)NC(=O)[C@H](CC(C)C)NC(=O)[C@H](C)NC(=O)[C@@H](NC(=O)[C@H](C)NC(=O)[C@H](C)NC(=O)CCC(=O)O)C(C)C)C(C)C)C(=O)N[C@@H](Cc1ccc(O)cc1)C(=O)O [WALL013] (Suc-AAVALLPAVLLALLAPKANLKECGLY-OH; C-terminus assumed) | 245 µg/mL (≈ 89.5 µM) | 100% | +++ (+++ Potent inhibitor (≧80% inhibition)) | effectively block the allergic response in vivo | 89.7 ± 13.7 (n = 4)** mm^2 | 74.7 ± 12.0 (n = 4) mm^2 | 96.4 ± 28.4 (n = 4)* mm^2 | 77.3 ± 13.5 (n = 4) mm^2 | significantly reduced | − | did not result in histamine secretion | minor inhibition of the basal level of histamine secretion |  |  |  |  |  |
| CC(C)C[C@H](NC(=O)CNC(=O)[C@H](CS)NC(=O)[C@H](CCC(=O)O)NC(=O)[C@H](CCCCN)NC(=O)[C@H](CC(C)C)NC(=O)[C@H](CC(N)=O)NC(=O)[C@H](CC(N)=O)NC(=O)[C@H](CCCCN)NC(=O)[C@@H]1CCCN1C(=O)[C@H](C)NC(=O)[C@H](CC(C)C)NC(=O)[C@H](CC(C)C)NC(=O)[C@H](C)NC(=O)[C@H](CC(C)C)NC(=O)[C@H](CC(C)C)NC(=O)[C@@H](NC(=O)[C@H](C)NC(=O)[C@@H]1CCCN1C(=O)[C@H](CC(C)C)NC(=O)[C@H](CC(C)C)NC(=O)[C@H](C)NC(=O)[C@@H](NC(=O)[C@H](C)NC(=O)[C@H](C)NC(=O)CCC(=O)O)C(C)C)C(C)C)C(=O)N[C@@H](Cc1ccc(N)cc1)C(=O)O [WALL014] (Suc-AAVALLPAVLLALLAPKNNLKECGL[Phe(4-NH2)]-OH; C-terminus assumed) | 230 µg/mL (≈ 82.8 µM) | 83% | +++ (+++ Potent inhibitor (≧80% inhibition)) | effectively block the allergic response in vivo | 108.1 ± 15.0 (n = 2) mm^2 | 87.2 ± 1.9 (n = 2) mm^2 | 91.5 ± 34.9 (n = 2) mm^2 | 100.1 ± 38.9 (n = 2) mm^2 | significantly reduced | − | did not result in histamine secretion |  | no significant inhibition |  |  |  |  |
| CC(C)C[C@H](NC(=O)CNC(=O)[C@H](CS)NC(=O)[C@H](CCC(=O)O)NC(=O)[C@H](CCCCN)NC(=O)[C@H](CC(C)C)NC(=O)[C@H](CC(N)=O)NC(=O)[C@H](CCC(N)=O)NC(=O)[C@H](CCCCN)NC(=O)[C@@H]1CCCN1C(=O)[C@H](C)NC(=O)[C@H](CC(C)C)NC(=O)[C@H](CC(C)C)NC(=O)[C@H](C)NC(=O)[C@H](CC(C)C)NC(=O)[C@H](CC(C)C)NC(=O)[C@@H](NC(=O)[C@H](C)NC(=O)[C@@H]1CCCN1C(=O)[C@H](CC(C)C)NC(=O)[C@H](CC(C)C)NC(=O)[C@H](C)NC(=O)[C@@H](NC(=O)[C@H](C)NC(=O)[C@H](C)NC(=O)CCC(=O)O)C(C)C)C(C)C)C(=O)N[C@@H](Cc1ccc(O)cc1)C(=O)O [WALL015] (Suc-AAVALLPAVLLALLAPKQNLKECGLY-OH; C-terminus assumed) | 300 µg/mL (≈ 107 µM) | 75% | ++ (++ Moderate inhibitor (50%-70% inhibition)) | effectively block the allergic response in vivo |  |  |  |  | reduced the allergic reaction | − | did not result in histamine secretion | minor inhibition of the basal level of histamine secretion |  | 110.4 mm^2 | 100.1 mm^2 | 89.7 mm^2 | 75.3 mm^2 |
